Assay [1] addresses T1, hMagT1 (human MagT1) (Homo sapiens, UniProt Q9H0U3).
T1 construct: full-length ORF, 335 residues, 38,036 Da; subcloned in pEYFP-N1, cRNA injected in Xenopus laevis oocytes; no fusion tag stated
T1 sequence (Q9H0U3 30-335): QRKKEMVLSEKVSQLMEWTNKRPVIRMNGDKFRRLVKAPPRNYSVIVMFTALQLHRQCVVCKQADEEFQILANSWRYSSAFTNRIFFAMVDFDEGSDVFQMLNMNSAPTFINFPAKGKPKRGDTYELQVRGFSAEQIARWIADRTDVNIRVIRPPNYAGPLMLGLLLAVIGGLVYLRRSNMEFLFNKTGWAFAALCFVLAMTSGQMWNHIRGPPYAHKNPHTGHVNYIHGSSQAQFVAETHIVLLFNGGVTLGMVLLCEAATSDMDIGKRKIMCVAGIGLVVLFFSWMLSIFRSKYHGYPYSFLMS
In words: two-microelectrode voltage clamp, Xenopus oocytes, Mg2+-evoked current. The class given is cell-based. The conditions noted are these: 10 μM compound, -125 mV, n = 7; inhibitor; control current 0.59 ± 0.09 μA.

Assay [2] has as its target T1, hMagT1 (human MagT1). The assay is described as above. The class given is cell-based. The conditions noted are these: 10 μM compound, -125 mV, n = 5; activator; control current 0.59 ± 0.09 μA.

From paper PMC1129089, “Identification and characterization of a novel mammalian Mg^2+ transporter with channel-like properties” (BMC Genomics, 2005) come the findings set out here.

As to `CCOC(=O)C1=C(C)NC(C)=C(C(=O)OC)C1c1cccc([N+](=O)[O-])c1` (centres unmarked) [nitrendipine], at hMagT1 (human MagT1) [1], the “residual current at 10 μM” value was found to be 0.15 ± 0.02 μA.
Take `COC(=O)C1=C(C)NC(C)=C([N+](=O)[O-])C1c1ccccc1C(F)(F)F` (centres unmarked) [BAY K8644]: the “current at 10 μM” value on hMagT1 (human MagT1) [2] turned out to be 0.80 ± 0.18 μA.
